In ChEMBL document CHEMBL5143655, “Synthesis and biological evaluation of 1,2,4-triazole derivatives as potential Nrf2 activators for the treatment of cerebral ischemic injury” (Eur J Med Chem, 2022):
Calls of active or inactive are those of the source. No cut-off for these calls is given here.

Assays:
[1] = Cytotoxicity against rat PC-12 cells assessed as reduction in cell viability by MTT assay; type: toxicity, cell-based
PC-12 [2] = assay: Neuroprotective activity against SNP induced rat PC-12 cells assessed as increase in cell viability at 5 uM preincubated for 2 hrs followed by SNP stimulation for 24 hrs by MTT assay relative to control; type: functional
[3] = Metabolic stability in human plasma assessed as parent compound remaining at 200 uM measured after 15 min by LC-MS/MS analysis relative to control; type: ADME, cell-free; settings: read-out: Stability
[4] = Plasma protein binding in Sprague-Dawley rat plasma at 10 uM incubated for 6 hrs by LC-MS/MS based equilibrium dialysis method; type: ADME, cell-free; settings: read-out: PPB (converted)
[5] = Metabolic stability in human plasma assessed as parent compound remaining at 200 uM measured after 60 min by LC-MS/MS analysis relative to control; type: ADME, cell-free; settings: read-out: Stability
[6] = Metabolic stability in human plasma assessed as parent compound remaining at 200 uM measured after 90 min by LC-MS/MS analysis relative to control; type: ADME, cell-free; settings: read-out: Stability
[7] = Metabolic stability in human plasma assessed as half life at 200 uM by LC-MS/MS analysis relative to control; type: ADME, cell-free
[8] = molecular target: Voltage-gated inwardly rectifying potassium channel KCNH2 (Homo sapiens, UniProt Q12809); assay: Inhibition of hERG channel expressed in HEK293 cells at -80 mV holding potential by automated patch clamp method; type: toxicity, cell-based
Voltage-gated inwardly rectifying potassium channel KCNH2, sequence (Q12809 whole entry): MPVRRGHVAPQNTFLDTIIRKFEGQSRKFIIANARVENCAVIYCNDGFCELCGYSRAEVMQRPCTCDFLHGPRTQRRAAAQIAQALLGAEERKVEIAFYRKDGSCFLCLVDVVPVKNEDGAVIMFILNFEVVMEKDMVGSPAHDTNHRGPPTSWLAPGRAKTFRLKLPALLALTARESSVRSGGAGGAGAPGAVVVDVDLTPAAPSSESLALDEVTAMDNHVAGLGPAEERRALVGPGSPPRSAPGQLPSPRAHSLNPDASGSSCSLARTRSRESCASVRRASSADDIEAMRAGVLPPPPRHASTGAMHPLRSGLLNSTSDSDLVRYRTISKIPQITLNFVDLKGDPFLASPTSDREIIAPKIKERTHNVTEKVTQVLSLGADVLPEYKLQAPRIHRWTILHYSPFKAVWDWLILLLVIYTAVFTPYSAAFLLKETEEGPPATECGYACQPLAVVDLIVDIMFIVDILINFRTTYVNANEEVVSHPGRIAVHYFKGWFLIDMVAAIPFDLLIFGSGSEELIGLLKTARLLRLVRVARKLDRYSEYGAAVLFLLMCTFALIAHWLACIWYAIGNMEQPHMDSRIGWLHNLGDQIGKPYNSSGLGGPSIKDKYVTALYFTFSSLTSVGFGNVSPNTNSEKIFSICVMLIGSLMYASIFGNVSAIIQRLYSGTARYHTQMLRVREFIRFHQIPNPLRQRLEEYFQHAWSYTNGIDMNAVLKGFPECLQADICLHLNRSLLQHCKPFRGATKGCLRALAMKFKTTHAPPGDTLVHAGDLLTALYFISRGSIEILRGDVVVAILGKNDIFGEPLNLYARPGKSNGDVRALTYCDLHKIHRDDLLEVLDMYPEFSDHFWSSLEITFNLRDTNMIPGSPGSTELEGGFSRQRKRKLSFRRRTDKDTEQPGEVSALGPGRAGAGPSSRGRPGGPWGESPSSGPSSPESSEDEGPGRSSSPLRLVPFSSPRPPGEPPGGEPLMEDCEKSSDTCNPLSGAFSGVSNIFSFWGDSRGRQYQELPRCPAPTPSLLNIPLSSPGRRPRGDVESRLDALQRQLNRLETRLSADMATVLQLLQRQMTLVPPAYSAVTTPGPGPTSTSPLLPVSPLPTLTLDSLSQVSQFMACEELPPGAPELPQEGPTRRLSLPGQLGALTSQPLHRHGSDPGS

[9] = Acute toxicity in BALB/c mouse assessed as survival rate at 175 mg/kg, ip measured after 7 days; type: organism-based; settings: in vivo, 168 h, time 7 day
[10] = Acute toxicity in BALB/c mouse assessed as survival rate at 550 mg/kg, ip measured after 7 days; type: organism-based; settings: in vivo, 168 h, time 7 day
[11] = Acute toxicity in BALB/c mouse assessed as survival rate at 1000 mg/kg, ip measured after 7 days; type: organism-based; settings: in vivo, 168 h, time 7 day
[12] = Tmax in Sprague-Dawley rat at 5 mg/kg, iv measured upto 24 hrs by LC-MS/MS analysis; type: ADME, organism-based; settings: in vivo
[13] = Cmax in Sprague-Dawley rat at 5 mg/kg, ip measured at 2 hrs by LC-MS/MS analysis; type: ADME, organism-based; set-up: dose 5 mg/kg, time 2 hrs, route ip; settings: in vivo
[14] = Cmax in Sprague-Dawley rat at 5 mg/kg, iv measured upto 24 hrs by LC-MS/MS analysis; type: ADME, organism-based; set-up: dose 5 mg/kg, time < 24 hrs, route iv; settings: in vivo
[15] = AUC (0 to infinity) in Sprague-Dawley rat at 5 mg/kg, ip measured upto 24 hrs by LC-MS/MS analysis; type: ADME, organism-based; set-up: time < 24 hrs, dose 5 mg/kg, route ip; settings: in vivo
[16] = AUC (0 to infinity) in Sprague-Dawley rat at 5 mg/kg, iv measured upto 24 hrs by LC-MS/MS analysis; type: ADME, organism-based; set-up: dose 5 mg/kg, time < 24 hrs, route iv; settings: in vivo
[17] = Half life in Sprague-Dawley rat at 5 mg/kg, ip measured upto 24 hrs by LC-MS/MS analysis; type: ADME, organism-based; settings: in vivo
Rattus norvegicus [18] = assay: Neuroprotective activity in Sprague-Dawley rat model of middle cerebral artery occlusion-induced ischemia-reperfusion injury assessed as decrease in neurological score at 3 mg/kg, ip preincubated for 1 hrs followed by MCAO operation and further incubated with compound for 4 hrs after reperfusion; type: functional; settings: time 5 hrs
Rattus norvegicus [19] = assay: (§1) Neuroprotective activity in Sprague-Dawley rat model of middle cerebral artery occlusion-induced ischemia-reperfusion injury assessed as decrease in cerebral infarct volume at 10 mg/kg, ip preincubated for 1 hrs followed by MCAO operation and further incubated with compound for 4 hrs after reperfusion by TTC staining based assay; type: functional; set-up: scale not given: the % may be the effect or the level left; settings: time 5 hrs
Rattus norvegicus [20] = assay: as §1, with “30” for “10”; type: functional; set-up: scale not given: the % may be the effect or the level left; settings: time 5 hrs
Rattus norvegicus [21] = assay: Neuroprotective activity in Sprague-Dawley rat model of middle cerebral artery occlusion-induced ischemia reperfusion injury assessed as decrease in serum MDA level at 3 to 30 mg/kg, ip preincubated for 1 hrs followed by MCAO operation and further incubated with compound for 4 hrs after reperfusion; type: functional, organism-based; settings: dose 3-30 mg/kg, time 5.0 hrs
PC-12 [22] = assay: (§2) Neuroprotective activity against SNP-induced apoptotic rat PC-12 cells assessed as restoration of cell morphology at 10 uM preincubated for 2 hrs followed by SNP stimulation for 24 hrs by Hoechst 33258 staining based fluorescence microscopic analysis; type: functional
PC-12 [23] = assay: as §2, with “reduction in nuclear shrinkage by measuring the decrease in blue fluorescence signal” for “restoration of cell morphology”; type: functional, cell-based
PC-12 [24] = assay: Neuroprotective activity against SNP-induced oxidative stress in rat PC-12 cells assessed as inhibition of ROS accumulation at 10 uM preincubated for 2 hrs followed by SNP stimulation for 24 hrs by DCFH-DA staining based fluorescence microscopic analysis; type: functional, cell-based
[25] = molecular target: T1, Nuclear factor erythroid 2-related factor 2 (Rattus norvegicus) (UniProt O54968); assay: Activation of Nrf2 pathway in rat PC-12 cells assessed as Nrf2 accumulation in nucleus measured after 3 hrs by Western blot analysis; type: cell-based; settings: filed as activator, dose 2.5-10 µM, DDE = dose-dependent effect
T1 sequence (whole entry): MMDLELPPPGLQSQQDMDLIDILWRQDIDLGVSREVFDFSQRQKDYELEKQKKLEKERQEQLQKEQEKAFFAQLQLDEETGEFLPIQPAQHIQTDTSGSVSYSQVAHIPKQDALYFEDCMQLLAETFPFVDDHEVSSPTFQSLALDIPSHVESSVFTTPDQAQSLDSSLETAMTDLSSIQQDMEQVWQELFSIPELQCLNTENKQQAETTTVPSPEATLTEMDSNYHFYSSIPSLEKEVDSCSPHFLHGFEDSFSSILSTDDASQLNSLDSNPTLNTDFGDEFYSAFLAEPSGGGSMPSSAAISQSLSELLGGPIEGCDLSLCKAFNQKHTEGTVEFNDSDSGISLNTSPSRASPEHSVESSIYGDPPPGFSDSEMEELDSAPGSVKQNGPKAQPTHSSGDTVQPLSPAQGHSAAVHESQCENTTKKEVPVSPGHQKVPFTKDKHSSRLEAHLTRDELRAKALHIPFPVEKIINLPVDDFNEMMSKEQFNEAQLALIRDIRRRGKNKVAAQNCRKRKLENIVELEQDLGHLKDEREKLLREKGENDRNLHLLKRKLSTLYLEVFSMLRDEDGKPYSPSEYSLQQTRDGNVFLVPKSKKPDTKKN

[26] = molecular target: T1, Nuclear factor erythroid 2-related factor 2 (Rattus norvegicus); assay: Activation of Nrf2 pathway in rat PC-12 cells assessed as increase in HO-1 level at 2.5 to 10 uM measured after 3 hrs by Western blot analysis; type: cell-based; settings: filed as activator, dose 2.5-10 µM
[27] = molecular target: T1, Nuclear factor erythroid 2-related factor 2 (Rattus norvegicus); assay: Activation of Nrf2 pathway in rat PC-12 cells assessed as increase in GCLC level at 2.5 to 10 uM measured after 3 hrs by Western blot analysis; type: cell-based; settings: filed as activator, dose 2.5-10 µM
Rattus norvegicus [28] = assay: Neuroprotective activity in Sprague-Dawley rat model of middle cerebral artery occlusion-induced ischemia-reperfusion injury assessed as attenuation of behavioral deficit at 30 mg/kg, ip preincubated for 1 hrs followed by MCAO operation and further incubated with compound for 4 hrs after reperfusion; type: functional; settings: time 5 hrs
[29] = molecular target: T1, Nuclear factor erythroid 2-related factor 2 (Rattus norvegicus); assay: Activation of Nrf2 pathway in rat PC-12 cells assessed as reversal of ML385 induced inhibition of Nrf2 protein expression at 10 uM measured after 3 hrs in the presence of Nrf2 signalling inhibitor ML385 by Western blot analysis; type: cell-based; settings: filed as activator

Molecule `Cc1cc(C)cc(-n2nc(-c3ccc(C(F)(F)F)cc3O)nc2-c2ccccc2O)c1` has an IC50 [1] of 263 µM, an Activity (PC-12 [2]) of 101.59% and a remaining at 0.25 h, 200 µM [3] of 95.8%. The fraction unbound at 6 h, 10 µM [4] was 0.0008, the remaining at 1 h, 200 µM [5] was 90.7% and the remaining at 1.5 h, 200 µM [6] was 89.5%. The half-life at 200 µM [7] was greater than 8.82 h, the IC50 [8] was greater than 30 µM and the Activity [9] was “Non-Toxic”. The Activity [10] was “Non-Toxic”, the Activity [11] was “Toxic” and the Tmax [12] was 4.8 min. For the same molecule, the Cmax [13] was 323 ng/mL, the Cmax [14] was 6910 ng/mL and the AUC(0-inf) [15] was 2930 ng·h/mL. For the same molecule, the AUC(0-inf) [16] was 10200 ng·h/mL, the half-life [17] was 12.8 h and the Activity (Rattus norvegicus [18]) was 1.87. The Activity (Rattus norvegicus [19]) was 14.49%, the Activity (Rattus norvegicus [20]) was 12.23% and the Activity (Rattus norvegicus [21]) was “Active”. The Activity (PC-12 [22]) was “Active”, the Activity (PC-12 [23]) was “Active” and the Activity (PC-12 [24]) was “Active”. The Activity [25] was “Dde”, the Activity [26] was “Active” and the Activity [27] was “Active”. The Activity (Rattus norvegicus [28]) was 1.5 and the Activity [29] was “Active”.
